The values below come from patent US20250374919A1, “AQUEOUS SUSPENSION AGROCHEMICAL COMPOSITION CONTAINING NATURAL RUBBER” (SUMITOMO CHEMICAL COMPANY, LIMITED, priority 2022, published 2025).

The data set can be described thus: Water solubility of agrochemical active ingredient at 20° C. Type of data set: physicochemical.

`Cc1nnc(Cl)c(-c2c(F)cccc2F)c1-c1ccccc1` [Pyridachlometyl]: the “water solubility at 20° C.” value is 0.8 ppm.

As for Inpyrfluxam, the “water solubility at 20° C.” value is 16.4 ppm.
